According to PubChem BioAssay AID1902 (Broad Institute, 2009):
Calls of active or inactive are those of the source.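 The calls were made as follows: active = EC50 no more than a set limit of log units above the highest dose; inactive = the rest.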

molecular target: S. pyogenes SKKanGAS, kanamycin survival, BacTiterGlo, 6 h; assay: S. pyogenes SKKanGAS kanamycin growth inhibitors – SKKanGAS strain, luminescence, dose confirmation, streptokinase promoter inhibitor project, dose response (AID 1902);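 also: lower survival reflects blocked streptokinase promoter driving kanamycin resistance gene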

SMILES | EC50
CN1CCN(NC(=O)Nc2cc(Cl)cc(Cl)c2)CC1 | 3.72 µM
COc1ccc(Cn2c(-c3ccco3)nc3oc4cc(OC)ccc4c(=O)c3c2=O)cc1 | 14.7 µM
O=C(O)c1cccc2c(-c3ccccc3)c(-c3ccccc3)[nH]c12 | 8.51 µM
COc1ccc(NS(=O)(=O)c2ccc3ccccc3c2)c2ncccc12 | 1.2 µM
Cc1ccccc1C(=O)Oc1cccc(Nc2ncnc3ccccc23)c1 | 3.57 µM
Cc1ccc(Nc2nc(N/N=C\c3ccc4c(c3)OCO4)nc(N3CCOCC3)n2)cc1 | 4.5 µM
CCOC(=O)c1c(NC(=O)COC(=O)c2ccc(C)s2)sc2c1CC(C)(C)NC2(C)C | 3.7 µM
Cc1nn(-c2ccc(Cl)cc2)c(Cl)c1/C=N/NC(=O)c1ccc(NS(=O)(=O)c2cccs2)cc1 | 2.06 µM
COc1ccccc1-c1nnc(Nc2nc3c(OC)cccc3s2)o1 | 0.803 µM
Cc1cc2oc(=O)cc(CN(C)Cc3ccccc3)c2cc1C(C)C | 4.52 µM
Cc1noc(C)c1C(=O)Nc1ccc2ccccc2c1 | > 15 µM (inactive)
Cc1cccc(C)c1OCC(=O)NNC(=S)NC(=O)C1CC1 | 0.304 µM
COc1ccc2nc(Nc3nc4cc5c(cc4s3)OCO5)sc2c1 | 1.02 µM
COc1ccccc1C(=O)NNC(=S)NC(=O)c1ccco1 | 0.383 µM
N#Cc1c(N)nc(Sc2ccc(Cl)cc2)c(C#N)c1-c1ccccc1Cl | 6.03 µM
COc1ccc(C(=O)NNC(=S)NC(=O)c2cccs2)cc1 | 2.2 µM
CC(Oc1ccc(Cl)cc1Cl)C(=O)Nc1ccc2oc(-c3ccncc3)nc2c1 (centres undefined) | 6.24 µM
Cc1nc(N/N=C\c2ccc3c(c2)OCO3)sc1C | 4.63 µM
CCCCn1c(SCC(=O)c2ccccc2)nc2c1c(=O)[nH]c(=O)n2C | 3.43 µM
Cc1ccc(C(=O)NC(=S)N(C)C2CCCCC2)cc1Br | 2.96 µM
CC1CCCN(S(=O)(=O)c2ccc(C(=O)Nc3nnc(C4=COCCO4)o3)cc2)C1 (centres undefined) | 5.27 µM
CC1(C)CC(=O)C2=C(C1)c1c(ccc3ccccc13)NC2c1cc([N+](=O)[O-])cc([N+](=O)[O-])c1O (centres undefined) | 4.55 µM

SMILES | EC50
Cc1cc(Br)c(OCc2ccc(C(=O)N/N=C3\CC4CC=CC34)cc2)c(Br)c1 (centres undefined) | 4 µM
Oc1cccc2ccc(/C=C/c3cccs3)nc12 | 2.91 µM
Cc1ccc2ccc(C(Nc3cccc(C(F)(F)F)c3)c3cccnc3)c(O)c2n1 (centres undefined) | 1.12 µM
O=c1c2c(nc(NCCO)n1CC1CCCCC1)-c1ccccc1CC21CCCC1 | 4.16 µM
COCCSc1ccccc1C(=O)N1CCCC(C)C1 (centres undefined) | > 15 µM (inactive)
CC12CCC(CC1)C(C)(C)O2 | > 15 µM (inactive)
O=C1/C(=C\c2cccc(O)c2O)SC(=S)N1Cc1ccccc1 | 2.2 µM
Cc1cccc(NC(=S)Nc2ccc(Cl)c(Cl)c2)c1 | 9.6 µM
Cc1[nH]n2c(=O)cc(C(C)(C)C)nc2c1-c1ccccc1 | 2.77 µM
O=C1NC(=Nc2ccc(Cl)cc2)SC1Cc1cc(Cl)ccc1Cl (centres undefined) | 2.97 µM
CCSc1cc(N2CCCC2)nc(-c2ccccc2)n1 | > 15 µM (inactive)
O=C(N/N=C/c1ccc(-c2ccc(Cl)c(C(=O)O)c2)o1)c1cc2c(ccc3ccccc32)o1 | 4.05 µM
CCCn1c(C2CCCN2c2nc(-c3cccc(Br)c3)cs2)nc2cc(Cl)c(Cl)cc21 (centres undefined) | 3.68 µM
N#Cc1nc(-c2ccccc2Cl)oc1N1CCN(C(=O)c2ccco2)CC1 | > 15 µM (inactive)
Cc1ccc(C(=O)NNC(=S)NC(=O)c2ccc(Cl)cc2Cl)cc1 | 0.09 µM
O=C(NNC1=C(C(=O)C(F)(F)F)CCC1)c1ccccc1O | 0.724 µM
Cc1cccc2sc(NNC(=O)c3cc(=O)c4ccccc4o3)nc12 | 0.42 µM
CCOc1ccc(NC(=O)c2c(NC(=O)CNCCN3CCOCC3)sc3c2CCC3)cc1 | 1.1 µM
CC(C)(C)c1ccc(OCC(=O)N2CCN(c3ncccn3)CC2)cc1 | > 15 µM (inactive)
CC(C)c1ccc2c(c1)C1(NN=C(c3ccccc3)S1)C(=O)N2 (centres undefined) | < 0.06 µM
Cc1onc(-c2c(F)cccc2Cl)c1C(=O)NCc1ccc2c(c1)OCO2 | > 15 µM (inactive)
CCC(NC(=S)NC1CCCCC1)c1ccc(C(C)C)cc1 (centres undefined) | 5.2 µM
